Reference: patent publication US6069172A, “(R)-2-(3-benzoylphenyl) propionic acid salts and pharmaceutical preparations containing them” (priority 1998, dated 2000)

How the values were obtained:
T-cell = settings: stimulated by these agonists; cited from earlier work
PMN leukocytes = settings: cited from earlier work
[1] = test system: chemotactic activity induced by zymosan; settings: healthy volunteers and patients; cited from earlier work
PMN leucocyte = settings: 200 mg for 10 days; cited from earlier work
[2] = test system: carrageenin-induced pleural exudate; PMN cell migration; settings: cited from earlier work
neutrophil = settings: Ca^++ ionophore and FLMP; cited from earlier work
[3] = rats; in words; cited from earlier work
TXB2 synthesis = TXB2 synthesis inhibition in human blood; assay type: cell-based; settings: index of platelet antiaggregating properties
platelet aggregation = experiment: inhibitory action on platelet aggregation
pain perception = settings: men; compared with (S) enantiomers; cited from earlier work
[4] = test system: croton oil-induced ear oedema; settings: compared with racemate and (S) enantiomer; mice; cited from earlier work
[5] = test system: ultra-violet radiation-induced epidermal erythema; settings: topic; guinea pigs; cited from earlier work
gastrolesive action = settings: in vivo
[6] = test system: carrageenin-induced oedema; settings: compared with racemate and (S) enantiomer; rats; cited from earlier work

Which T-cell migration (T-cell) does the source give for “4-[3-(4-Fluorophenyl)]-2-[[4-(N-3-(2-quinolinmethoxy) phenyl)]amino]phenylpropylbenzoic acid [ETH-615]” here?
Its T-cell migration is “no effects”.

And the “chemotaxis of PMN leukocytes induced by FLMP” value (PMN leukocytes; FLMP)?
The value was “only slightly inhibited”.

And the “chemotaxis of PMN leukocytes induced by IL-8 or LTB4” value (PMN leukocytes; IL-8 or LTB4)?
Its value is “clearly inhibited”.

Which “chemotactic activity induced by zymosan” value [1] does the source give for `CC(C(=O)O)c1cccc(C(=O)c2ccccc2)c1` (racemic) [ketoprofen] here?
Its value is “inhibited”.

What about the PMN leucocyte fagocytosis (PMN leucocyte) of the same molecule?
The PMN leucocyte fagocytosis was “reduction”.

What about the “bactericidal function of PMN” value (PMN leucocyte) of the same molecule?
The value was “not affected”.

What about the “migration of cells into the pleural cavity, later study” value ([2]; later demonstration against the earlier one) of the same molecule?
The value was “exatly the opposite”.

And the “migration of cells into the pleural cavity” value ([2]; oral, PMN cells vs monocytes, thought in 1975)?
Its value is “inhibit the migration of PMN cells, but not that of monocytes”.

What about the “carrageenin-induced formation of pleural exudate” value ([2]; oral) of the same molecule?
Its value is “inhibited”.

And the “inhibition of neutrophil activation / blockade of Ca^++ ion entry” value (neutrophil)?
Its value is “completely inactive”.

Which “conversion of (R) into (S) enantiomer” value [3] does the source give for `C[C@@H](C(=O)O)c1cccc(C(=O)c2ccccc2)c1` [(R)-ketoprofen, (R)-2-(3-benzoylphenyl)propionic acid] here?
Its value is “completely converted”.

And the IC50 (TXB2 synthesis)?
Its IC50 is 9.75 ± 0.75 mM.

And the “inhibitory action on platelet aggregation” value (platelet aggregation)?
Its value is “substantially devoid”.

What about the “inhibition of pain perception” value (pain perception) of the same molecule?
The value was “efficacy at least similar to that of the (S) enantiomers”.

And the “in vivo antiinflammatory effectiveness, croton oil-induced ear oedema” value [4]?
Its value is “significantly lower than those of the racemate and of the (S) enantiomer”.

And the “Protection, UV radiation-induced epidermal erythema” value [5]?
Its value is 53.1±4.6%.

And the gastrolesive action (gastrolesive action)?
The gastrolesive action was “substantially devoid”.

And the “inhibition of COX-2” value (COX-2)?
Its value is “do not inhibit”.

And the “in vivo antiinflammatory effectiveness, carrageenin-induced oedema” value [6]?
The value was “significantly lower than those of the racemate and of the (S) enantiomer”.

And the “inhibition of COX-1” value (COX-1)?
Its value is “do not inhibit”.
